Tests used:
Protease = Protease (Human immunodeficiency virus 1, UniProt Q9YQ12); assay: Inhibition of HIV1 wild type protease using Abz-Thr-Ile-Nle-p-nitro-Phe-Gln-Arg-NH2 as substrate after 5 mins by spectrophotometry
[1] = target: Human immunodeficiency virus type 1 protease (Human immunodeficiency virus 1, UniProt Q72874, I47V); assay: Inhibition of HIV1 protease I47V mutant using Abz-Thr-Ile-Nle-p-nitro-Phe-Gln-Arg-NH2 as substrate after 5 mins by spectrophotometry
[2] = target: Human immunodeficiency virus type 1 protease (Human immunodeficiency virus 1, UniProt Q72874, V82A); assay: Inhibition of HIV1 protease V82A mutant using Abz-Thr-Ile-Nle-p-nitro-Phe-Gln-Arg-NH2 as substrate after 5 mins by spectrophotometry
[3] = target: Human immunodeficiency virus type 1 protease (Human immunodeficiency virus 1, UniProt Q72874, N88D); assay: Inhibition of HIV1 protease N88D mutant using Abz-Thr-Ile-Nle-p-nitro-Phe-Gln-Arg-NH2 as substrate after 5 mins by spectrophotometry
[4] = target: Human immunodeficiency virus type 1 protease (Human immunodeficiency virus 1, UniProt Q72874, L76V); assay: Inhibition of HIV1 protease L76V mutant using Abz-Thr-Ile-Nle-p-nitro-Phe-Gln-Arg-NH2 as substrate after 5 mins by spectrophotometry
[5] = tested on: Human immunodeficiency virus 1; assay: Resistance index, ratio of Ki for HIV1 protease I47V mutant to Ki for HIV1 wild type protease
[6] = tested on: Human immunodeficiency virus 1; assay: Resistance index, ratio of Ki for HIV1 protease L76V mutant to Ki for HIV1 wild type protease
[7] = tested on: Human immunodeficiency virus 1; assay: Resistance index, ratio of Ki for HIV1 protease V82A mutant to Ki for HIV1 wild type protease
[8] = tested on: Human immunodeficiency virus 1; assay: Resistance index, ratio of Ki for HIV1 protease N88D mutant to Ki for HIV1 wild type protease

Sequence of Protease (Q9YQ12 whole entry): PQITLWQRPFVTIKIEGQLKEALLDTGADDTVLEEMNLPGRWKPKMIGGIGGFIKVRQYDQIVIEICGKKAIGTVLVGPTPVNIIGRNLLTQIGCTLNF

## COc1ccc(S(=O)(=O)N(C[C@H]2CCC(=O)N2)C[C@@H](O)[C@H](Cc2ccccc2)NC(=O)O[C@@H]2C[C@@H]3CCO[C@@H]3C2)cc1
Protease
  Ki: 0.44 nM
[1]
  Ki: 0.46 nM
[2]
  Ki: 0.65 nM
[3]
  Ki: 0.92 nM
[4]
  Ki: 0.8 nM
[5]
  Ratio Ki: < 2
[6]
  Ratio Ki: < 2
[7]
  Ratio Ki: < 2
[8]
  Ratio Ki: < 2
